Data as given in US20230038929A1, “Fused Tricyclic Heterocyclic Compounds and Uses Thereof” (Verge Analytics, Inc., priority 2019, published 2023).
Where a name gives a salt, the structure may show the parent alone.

Molecular target: T1, Full length human recombinant PIKFYVE (Homo sapiens, UniProt Q9Y2I7, L932S/Q1183K/Q995L/S1033A/S696N/T998S)
T1 construct: Full length human recombinant PIKFYVE; purchased Carna Biosciences (Kobe, Japan); host or cells: baculovirus expression system (insect cells)
T1 sequence (Q9Y2I7 whole entry S696N/L932S/Q995L/T998S/S1033A/Q1183K): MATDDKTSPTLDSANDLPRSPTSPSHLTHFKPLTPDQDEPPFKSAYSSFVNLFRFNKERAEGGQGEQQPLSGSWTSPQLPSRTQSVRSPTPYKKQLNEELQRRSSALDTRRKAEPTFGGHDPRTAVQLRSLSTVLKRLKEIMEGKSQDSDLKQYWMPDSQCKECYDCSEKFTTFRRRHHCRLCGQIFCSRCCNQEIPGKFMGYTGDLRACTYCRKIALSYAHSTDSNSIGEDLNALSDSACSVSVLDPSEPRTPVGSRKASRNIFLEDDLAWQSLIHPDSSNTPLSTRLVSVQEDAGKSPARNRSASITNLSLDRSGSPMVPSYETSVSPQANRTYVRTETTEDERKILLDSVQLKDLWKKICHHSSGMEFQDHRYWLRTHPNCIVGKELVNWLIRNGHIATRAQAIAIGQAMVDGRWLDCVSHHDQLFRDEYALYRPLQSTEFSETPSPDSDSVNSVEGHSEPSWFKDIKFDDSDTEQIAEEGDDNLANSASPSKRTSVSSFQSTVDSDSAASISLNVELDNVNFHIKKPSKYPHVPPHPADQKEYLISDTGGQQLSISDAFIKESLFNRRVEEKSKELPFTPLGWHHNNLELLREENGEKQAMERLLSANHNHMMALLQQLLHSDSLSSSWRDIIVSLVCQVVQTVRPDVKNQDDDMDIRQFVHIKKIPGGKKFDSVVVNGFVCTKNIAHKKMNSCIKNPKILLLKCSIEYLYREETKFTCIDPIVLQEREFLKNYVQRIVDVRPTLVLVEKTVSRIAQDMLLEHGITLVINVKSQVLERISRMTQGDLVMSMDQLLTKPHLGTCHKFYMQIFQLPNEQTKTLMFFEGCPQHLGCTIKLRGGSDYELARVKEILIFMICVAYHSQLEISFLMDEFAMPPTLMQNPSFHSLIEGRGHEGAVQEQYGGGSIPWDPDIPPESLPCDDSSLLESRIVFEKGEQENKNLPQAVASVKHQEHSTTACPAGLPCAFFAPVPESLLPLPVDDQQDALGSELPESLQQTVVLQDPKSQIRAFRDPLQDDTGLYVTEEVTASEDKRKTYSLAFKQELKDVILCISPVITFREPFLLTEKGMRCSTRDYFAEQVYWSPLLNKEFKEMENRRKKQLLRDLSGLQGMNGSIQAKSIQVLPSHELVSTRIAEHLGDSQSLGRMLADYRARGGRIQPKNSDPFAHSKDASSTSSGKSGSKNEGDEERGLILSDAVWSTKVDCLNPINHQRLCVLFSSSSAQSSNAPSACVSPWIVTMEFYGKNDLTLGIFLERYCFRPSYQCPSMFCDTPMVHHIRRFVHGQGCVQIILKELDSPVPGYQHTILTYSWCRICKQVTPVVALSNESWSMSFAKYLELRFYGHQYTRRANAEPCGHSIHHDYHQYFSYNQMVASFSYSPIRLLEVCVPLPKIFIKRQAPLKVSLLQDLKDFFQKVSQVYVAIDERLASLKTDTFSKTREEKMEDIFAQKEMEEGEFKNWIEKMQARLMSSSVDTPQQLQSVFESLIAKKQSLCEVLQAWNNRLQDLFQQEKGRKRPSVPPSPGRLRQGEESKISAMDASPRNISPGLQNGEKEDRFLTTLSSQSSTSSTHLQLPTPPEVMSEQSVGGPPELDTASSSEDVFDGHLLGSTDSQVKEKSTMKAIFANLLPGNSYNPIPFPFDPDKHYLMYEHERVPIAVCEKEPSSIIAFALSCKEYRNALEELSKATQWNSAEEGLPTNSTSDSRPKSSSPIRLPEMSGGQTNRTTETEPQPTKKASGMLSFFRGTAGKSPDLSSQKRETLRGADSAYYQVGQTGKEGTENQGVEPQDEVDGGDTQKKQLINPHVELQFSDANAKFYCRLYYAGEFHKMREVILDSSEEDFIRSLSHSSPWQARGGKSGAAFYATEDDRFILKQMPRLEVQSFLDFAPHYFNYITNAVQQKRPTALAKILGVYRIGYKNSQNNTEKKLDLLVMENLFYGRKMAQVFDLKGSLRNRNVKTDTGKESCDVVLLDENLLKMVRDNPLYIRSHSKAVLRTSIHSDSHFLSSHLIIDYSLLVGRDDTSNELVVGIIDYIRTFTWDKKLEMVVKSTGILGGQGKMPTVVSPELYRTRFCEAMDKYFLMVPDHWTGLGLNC
Assay: Inhibition of PIKfyve (microfluidic electrophoresis kinase assay)
Format: biochemical
Conditions: 2 nM enzyme, 1 μM PI3P, 3 h at room temperature, 12 concentrations; read-out: PIKfyve IC50
Protocol: Biological Example 1: Inhibition of PIKfyve
Full length human recombinant PIKFYVE expressed in baculovirus expression system as N-terminal GST-fusion protein (265 kDa) was obtained from Carna Biosciences (Kobe, Japan). The kinase substrate was prepared by mixing and sonicating fluorescently-labeled phosphatidylinositol 3-phosphate (PI3P) with phospho-L-serine (PS) at a 1:10 ratio in 50 mM HEPES buffer pH7.5.
The kinase reactions were assembled in 384-well plates (Greiner) in a total volume of […] as follows. Kinase protein was pre-diluted in an assay buffer comprising 25 mM HEPES, pH 7.5, 1 mM DTT, 2.5 mM MgCl2, and 2.5 mM MnCl2, and 0.005% Triton X-100, and dispensed into a 384-well plate (10 μL per well). Test compounds were serially pre-diluted in DMSO and added to the protein samples by acoustic dispensing (Labcyte Echo). The concentration of DMSO was equalized to 1% in all samples. All test compounds were tested at 12 concentrations. Apilimod was used as a reference compound and was tested in identical manner in each assay plate. Control samples (0%-inhibition, in the absence of inhibitor, DMSO only) and 100%-inhibition (in the absence of enzyme) were assembled in replicates of four and were used to calculate %-inhibition in the presence of compounds. The reactions were initiated by addition of 10 μL of 2× PI3P/PS substrate supplemented with ATP. The final concentration of enzyme was 2 nM, the final concentration of ATP was […], and the final concentration of PI3P/PS substrate was 1 μM (PI3P). The kinase reactions were allowed to proceed for 3 h at room temperature. Following incubation, the reactions were quenched by addition of […] of termination buffer (100 mM HEPES, pH 7.5, 0.01% Triton X-100, 20 mM EDTA). Terminated plates were analyzed on a microfluidic electrophoresis instrument (Caliper LabChip® 3000, Caliper Life Sciences/Perkin Elmer). The change in the relative fluorescence intensity of the PI(3)P substrate and PI(3,5)P product peaks was measured. The activity in each test sample was determined as the product to sum ratio (PSR): P/(S+P), where P is the peak height of the product, and S is the peak height of the substrate. Percent inhibition (Pinh) was determined using the following equation:
Pinh=(PSR0%inh−PSRcompound)/(PSR0%inh−P100%inh)*100
in which PSRcompound is the product/sum ratio in the presence of compound, PSR0%inh is the product/sum ratio in the absence of compound, and the PSR100%inh is the product/sum ratio in the absence of the enzyme. To determine the ICso of test compounds (50%-inhibition) the %-inh cdata (Pinh versus compound concentration) were fitted by a four-parameter sigmoid dose-response model using XLfit software (IDBS).

Question: With `Fc1ccc(-c2cc(Nc3nc(N4CCOCC4)c4oc5ncccc5c4n3)[nH]n2)cc1` [Example 1, N-(3-(4-Fluorophenyl)-1H-pyrazol-5-yl)-4-morpholinopyrido[3′,2′:4,5]furo[3,2-d]pyrimidin-2-amine hydrochloride] as the compound, how does the IC50 read?
Answer: Its IC50 is 473 nM.

Question: How did the IC50 turn out when `c1ccc(CNc2nc(N3CCOCC3)c3oc4ncccc4c3n2)cc1` [Example 2, N-Benzyl-4-morpholinopyrido[3′,2′:4,5]furo[3,2-d]pyrimidin-2-amine] was run?
Answer: Its IC50 is > 10000 nM.

Question: `O=C(Nc1nc(N2CCOCC2)c2oc3ncccc3c2n1)c1ccccc1` [Example 3] was tested. Which IC50 did it give?
Answer: The IC50 was > 10000 nM.

Question: `CN(C)CCOc1ccc2c(n1)oc1c(N3CCOCC3)nc(Nc3cc(-c4ccccc4)n[nH]3)nc12` [Example 4, 7-(2-(Dimethylamino)ethoxy)-4-morpholino-N-(3-phenyl-1H-pyrazol-5-yl)pyrido[3′,2′:4,5]furo[3,2-d]pyrimidin-2-amine hydrochloride] was tested. Which IC50 did it give?
Answer: The IC50 was 68 nM.

Question: How did the IC50 turn out when `Oc1ccc2c(n1)oc1c(N3CCOCC3)nc(Nc3cc(-c4ccccc4)n[nH]3)nc12` [Example 5, 4-Morpholino-2-((3-phenyl-1H-pyrazol-5-yl)amino)pyrido[3′,2′:4,5]furo[3,2-d]pyrimidin-7-ol hydrochloride] was run?
Answer: Its IC50 is 17 nM.

Question: For `c1ccc(-c2cc(Nc3nc(N4CCOCC4)c4oc5ncccc5c4n3)[nH]n2)nc1` [Example 6, 4-Morpholino-N-(3-(pyridin-2-yl)-1H-pyrazol-5-yl)pyrido[3′,2′:4,5]furo[3,2-d]pyrimidin-2-amine hydrochloride], which IC50 is on record?
Answer: Its IC50 is 251 nM.

Question: With `Cc1ccnc(-c2cc(Nc3nc(N4CCOCC4)c4oc5ncccc5c4n3)[nH]n2)c1` [Example 7, N-(3-(4-Methylpyridin-2-yl)-1H-pyrazol-5-yl)-4-morpholinopyrido[3′,2′:4,5]furo[3,2-d]pyrimidin-2-amine hydrochloride] as the compound, how does the IC50 read?
Answer: Its IC50 is 573 nM.

Question: With `CN(C)CCc1cnc2oc3c(N4CCOCC4)nc(Nc4cc(-c5ccccc5)n[nH]4)nc3c2c1` [Example 13, 8-(2-(Dimethylamino)ethyl)-4-morpholino-N-(3-phenyl-1H-pyrazol-5-yl)pyrido[3′,2′:4,5]furo[3,2-d]pyrimidin-2-amine] as the compound, how does the IC50 read?
Answer: Its IC50 is 143 nM.

Question: `Fc1ccccc1-c1cc(Nc2nc(N3CCOCC3)c3oc4ncccc4c3n2)[nH]n1` [Example 15, N-(3-(2-fluorophenyl)-1H-pyrazol-5-yl)-4-morpholinopyrido[3′,2′:4,5]furo[3,2-d]pyrimidin-2-amine hydrochloride] was tested. Which IC50 did it give?
Answer: The IC50 was 108 nM.

Question: How did the IC50 turn out when `Fc1cccc(-c2cc(Nc3nc(N4CCOCC4)c4oc5ncccc5c4n3)[nH]n2)c1` [Example 16, N-(3-(3-fluorophenyl)-1H-pyrazol-5-yl)-4-morpholinopyrido[3′,2′:4,5]furo[3,2-d]pyrimidin-2-amine hydrochloride] was run?
Answer: Its IC50 is 129 nM.

Question: How did the IC50 turn out when `Clc1cccc(-c2cc(Nc3nc(N4CCOCC4)c4oc5ncccc5c4n3)[nH]n2)c1` [Example 17, N-(3-(3-chlorophenyl)-1H-pyrazol-5-yl)-4-morpholinopyrido[3′,2′:4,5]furo[3,2-d]pyrimidin-2-amine hydrochloride] was run?
Answer: Its IC50 is 129 nM.

Question: With `FC(F)(F)c1cccc(-c2cc(Nc3nc(N4CCOCC4)c4oc5ncccc5c4n3)[nH]n2)c1` [Example 18, 4-morpholino-N-(3-(3-(trifluoromethyl)phenyl)-1H-pyrazol-5-yl)pyrido[3′,2′:4,5]furo[3,2-d]pyrimidin-2-amine hydrochloride] as the compound, how does the IC50 read?
Answer: The IC50 was 1630 nM.

Question: Which IC50 does the source give for `Fc1ccc(-c2cc(Nc3nc(N4CCOCC4)c4oc5ncccc5c4n3)[nH]n2)cc1F` [Example 19, N-(3-(3,4-difluorophenyl)-1H-pyrazol-5-yl)-4-morpholinopyrido[3′,2′:4,5]furo[3,2-d]pyrimidin-2-amine hydrochloride] here?
Answer: Its IC50 is 2180 nM.

Question: With `c1ccc(-c2c[nH]c(Nc3nc(N4CCOCC4)c4oc5ncccc5c4n3)n2)cc1` [Example 20, 4-morpholino-N-(4-phenyl-1H-imidazol-2-yl)pyrido[3′,2′:4,5]furo[3,2-d]pyrimidin-2-amine hydrochloride] as the compound, how does the IC50 read?
Answer: Its IC50 is 4750 nM.
